# Laboratory results as given in patent US6476067B1, “N-formyl hydroxylamine derivatives as antibacterial agents” (British Biotech, priority 1998, dated 2002).
# What was measured:
# E. coli strain DH5α = assay: Minimal inhibitory concentration (MIC), broth microdilution; assay type: cell-based; conditions: Escherichia coli, 2×YT broth, 37° C., 18 hours, lowest concentration that inhibited visible growth
# Method: (§1) Minimal inhibitory concentrations (MIC) of inhibitors against E. colistrain DH5α (Genotype; F-φ80d/acZΔM15Δ(lacZYA-argF)U169 deoR recA1 endA1 hsdR17(rk^−,mk^+)phoA supE44λ^−thi-1 gyrA96 re/A1) obtained from GibcoBRL Life Technologies, or Staphylococcus capitis (American Type Culture Collection number 35661) were determined as follows. Stock solutions of each test compound were prepared by dissolution of the compound in dimethylsulfoxide at 10 mM. For the determination of the minimal inhibitory concentration, two fold serial dilutions were prepared in 2×YT broth (typtone-16 g/1, yeast extract 10 g/1, sodium chloride 5 g/1 obtained from BIO 101 Inc, 1070 Joshua Way, Vista, Calif. 92083, USA) to yield 0.05 ml compound-containing medium per well. Inocula were prepared from cultures grown overnight in 2×YT broth at 37° C. Cell densities were adjusted to absorbance at 660 nm (A660)=0.1; the optical density-standardized preparations were diluted 1:1000 in 2×YT broth; and each well inoculated with 0.05 ml of the diluted bacteria. Microtiter plates were incubated at 37° C. for 18 hours in a humidified incubator. The MIC (μM) was recorded as the lowest drug concentration that inhibited visible growth.
# [1] = system: Staphylococcus capitis (American Type Culture Collection number 35661); assay: as above; assay type: cell-based; conditions: ATCC35661, S. capitis ATCC 35661, 2×YT broth, 37° C., 18 hours, lowest concentration that inhibited visible growth
# Method: as §1
SMILES,melting point [°C],MIC (E. coli strain DH5α) [µM],MIC [1] [µM]
"CCCC[C@H](CN(O)C=O)C(=O)N[C@H](C(=O)OC(C)(C)C)C(C)(C)C [Example 11, 2S-{2R-[(Formyl-hydroxy-amino)-methyl]-hexanoylamino}-3,3-dimethyl-butyric Acid Tert-butyl Ester]",76.1 to 78.2,,
"CCCC[C@H](CN(O)C=O)C(=O)N[C@H](C(=O)OC)C(C)(C)C [Example 5, 2S-{2R-[(Formyl-hydroxy-amino)methyl]-hexanoylamino}-3,3-dimethyl Butyric Acid Methyl Ester]",63.5 to 64.5,50,200
"CCCC[C@H](CN(O)C=O)C(=O)N[C@@H](Cc1ccccc1)C(=O)OC1CCCC1 [Example 4, 2S-{2R-[(Formyl-hydroxy-amino)-methyl]-hexanoylamino}-3-phenyl-propionic Acid Cyclopentyl Ester]",,200 to 300,25
"O=CN(O)C[C@@H](CC1CCCC1)C(=O)N[C@@H](Cc1ccccc1)C(=O)OC1CCCC1 [Example 16, 2S-[2R-Cyclopentylmethyl-3-(formyl-hydroxy-amino)-propionylamino]-3-phenyl-propionic Acid Cyclopentyl Ester]",76.8 to 78.5,,
"CCCC[C@H](CN(O)C=O)C(=O)N[C@H](C(=O)OC1CCCC1)C(C)(C)C [Example 3, 2S{-2R-[(Formyl-hydroxy-amino)-methyl]-hexanoylamino}-3,3-dimethyl Butyric Acid Cyclopentyl Ester]",,50,12.5
"CCCCC(CN(O)C=O)C(=O)N[C@H](C(=O)OC1CCCC1)C(C)C (stereo partly drawn) [Example 6, 2S-{2R-[(Formyl-hydroxy-amino)methyl]-hexanoylamino}-3-methyl Butyric Acid Cyclopentyl Ester]",,100,50
"CC(C)C[C@@H](C(=O)N[C@@H](Cc1ccccc1)C(=O)OC1CCCC1)C(C)N(O)C=O (stereo partly drawn) [Example 2, 2S-{2R-[1-(R,S)-(Formyl-hydroxy-amino)-ethyl]-4-methyl-pentanoylamino}-3-phenylpropionic Acid Cyclopentyl Ester]",,> 200,200 to 300
"O=CN(O)CC(Cc1ccccc1)C(=O)N[C@@H](Cc1ccccc1)C(=O)OC1CCCC1 (stereo partly drawn) [Example 1, 2S-[2-(R,S)-Benzyl-3-(formyl-hydroxy-amino)-propionylamino]-3-phenyl-propionic acid cyclopentyl ester]",,500,12.5
